Source: patent publication US8952024B2, “Herbicidal pyrimidone derivatives” (E I du Pont de Nemours and Company, priority 2009, dated 2015)

Experiments:
Format in all cases: in vivo
[1] = tested on: barnyardgrass (Echinochloa crus-galli); assay: Test A pre-/postemergence plant response
Outline: (§1)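 Visual injury rating on a 0–100 scale (0 = no effect, 100 = complete control) was made versus untreated controls after about ten days in the greenhouse. Compounds, formulated in a non-phytotoxic solvent mix containing surfactant, were sprayed preemergence onto loam/sand soil and postemergence onto one- to two-leaf plants.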

corn (Zea mays) = assay: Test A pre-/postemergence plant response
Outline: as §1

[2] = tested on: giant foxtail (Setaria faberii); assay: Test A pre-/postemergence plant response
Outline: as §1

[3] = tested on: large crabgrass (Digitaria sanguinalis); assay: Test A pre-/postemergence plant response
Outline: as §1

[4] = tested on: morningglory (Ipomoea spp.); assay: Test A pre-/postemergence plant response
Outline: as §1

[5] = tested on: pigweed (Amaranthus retroflexus); assay: Test A pre-/postemergence plant response
Outline: as §1

[6] = tested on: velvetleaf (Abutilon theophrasti); assay: Test A pre-/postemergence plant response
Outline: as §1

[7] = tested on: wheat (Triticum aestivum); assay: Test A pre-/postemergence plant response
Outline: as §1

[8] = tested on: canarygrass (Phalaris minor); assay: Test B postemergence plant response; details: for Plant response rating, Canarygrass: Postemergence
Outline: (§2)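 Plants grown in peat/vermiculite medium were sprayed postemergence at 2–18 cm height (1- to 4-leaf stage). After 13–15 days in the greenhouse, response was rated visually against untreated controls on a 0–100 scale (0 no effect, 100 complete control).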

[9] = tested on: chickweed (Stellaria media); assay: Test B postemergence plant response; details: for Plant response rating, Chickweed: Postemergence
Outline: as §2

[10] = tested on: windgrass (Apera spica-venti); assay: Test B postemergence plant response; details: for Plant response rating, Windgrass: Postemergence
Outline: as §2

[11] = tested on: winter barley (Hordeum vulgare); assay: Test B postemergence plant response; details: for Barley plant response rating (0 to 100 scale): 62 g ai/ha, postemergence, 0 is no effect, 100 is complete control; for Plant response rating, Barley: Postemergence
Outline: as §2

[12] = Postemergence, 125 g ai/ha, 0 to 100 scale where 0 is no effect and 100 is complete control
[13] = Postemergence, 500 g ai/ha, 0 to 100 scale, 0 = no effect, 100 = complete control, approx. ten days
[14] = Preemergence, 125 g ai/ha, 0 to 100 scale, 0 = no effect, 100 = complete control
[15] = Preemergence, 500 g ai/ha, visual injury, 0 to 100 scale (0 no effect, 100 complete control), approx. ten days
[16] = Preemergence, 500 g ai/ha, 0 to 100 scale, 0 = no effect, 100 = complete control
[17] = 62 g ai/ha, postemergence, 0 is no effect, 100 is complete control, 13 to 15 days
[18] = 31 g ai/ha, 0 to 100 scale (0 no effect, 100 complete control)
[19] = 125 g ai/ha, scale 0 to 100 (0 no effect, 100 complete control)
[20] = 250 g ai/ha, scale 0 to 100 (0 no effect, 100 complete control), 13 to 15 days
[21] = Postemergence, 500 g ai/ha, visual injury, 0 to 100 scale (0 no effect, 100 complete control), approx. ten days

CCCn1c(-c2cccc(C(F)(F)F)c2)ncc(C(=O)C2=C(O)CCCC2=O)c1=O [Compound 155]
10: Plant response rating, Barnyardgrass [1, 14] | Plant response rating, Canarygrass [8, 18]
40: Plant response rating, Corn (corn (Zea mays); [13])
60: Plant response rating, Foxtail, Giant [2, 15] | Plant response rating, Crabgrass, Large [3, 14] | Plant response rating, Velvetleaf [6, 14]
30: Plant response rating, Corn (corn (Zea mays); [15]) | Plant response rating, Foxtail, Giant [2, 14] | Plant response rating, Wheat [7, 13] | Barley plant response rating (0 to 100 scale) ([11]; 13 to 15 days) | Plant response rating, Barley [11, 18]
100: Plant response rating, Barnyardgrass [1, 13] | Plant response rating, Morningglory [4, 12] | Plant response rating, Morningglory [4, 13] | Plant response rating, Pigweed [5, 12] | Plant response rating, Pigweed [5, 13] | Plant response rating, Velvetleaf [6, 12] | Plant response rating, Velvetleaf [6, 13] | Plant response rating, Velvetleaf [6, 16] | Chickweed plant response rating (0 to 100 scale) [9, 17] | Plant response rating, Chickweed [9, 18] | Plant response rating, Chickweed [9, 19] | Plant response rating, Chickweed [9, 20]
55: Windgrass plant response rating (0 to 100 scale) [10, 17]
65: Plant response rating, Canarygrass [8, 20]
0: Plant response rating, Corn (corn (Zea mays); [14]) | Plant response rating, Morningglory [4, 14] | Plant response rating, Morningglory [4, 15] | Plant response rating, Wheat [7, 12] | Plant response rating, Wheat [7, 14] | Plant response rating, Wheat [7, 16]
90: Plant response rating, Barnyardgrass [1, 12] | Plant response rating, Barnyardgrass [1, 15] | Plant response rating, Foxtail, Giant [2, 13] | Plant response rating, Crabgrass, Large [3, 13] | Plant response rating, Crabgrass, Large [3, 15] | Plant response rating, Pigweed [5, 14] | Plant response rating, Pigweed [5, 15]
70: Plant response rating, Crabgrass, Large [3, 12] | Plant response rating, Windgrass [10, 19]
50: Plant response rating, Canarygrass [8, 19] | Plant response rating, Windgrass [10, 18]
35: Canarygrass plant response rating (0 to 100 scale) [8, 17]
80: Plant response rating, Foxtail, Giant [2, 12]
85: Plant response rating, Windgrass [10, 20] | Plant response rating, Barley [11, 20]
20: Plant response rating, Corn (corn (Zea mays); [12])
45: Plant response rating, Barley [11, 19]

CCCn1c(-c2cc(C)cc(C)c2)ncc(C(=O)C2=C(O)CCCC2=O)c1=O [Compound 156]
40: Plant response rating, Canarygrass [8, 19] | Plant response rating, Windgrass [10, 18]
45: Barley plant response rating (0 to 100 scale) ([11]; 13 to 15 days)
10: Plant response rating, Foxtail, Giant [2, 14] | Plant response rating, Crabgrass, Large [3, 14]
30: Plant response rating, Barley [11, 18]
60: Plant response rating, Canarygrass [8, 20] | Plant response rating, Windgrass [10, 20] | Plant response rating, Barley [11, 19]
80: Plant response rating, Barnyardgrass [1, 15] | Plant response rating, Foxtail, Giant [2, 12] | Plant response rating, Crabgrass, Large [3, 13] | Plant response rating, Pigweed [5, 15] | Plant response rating, Chickweed [9, 18]
100: Plant response rating, Morningglory [4, 12] | Plant response rating, Morningglory [4, 13] | Plant response rating, Pigweed [5, 12] | Plant response rating, Pigweed [5, 13] | Plant response rating, Velvetleaf [6, 12] | Plant response rating, Velvetleaf [6, 13] | Plant response rating, Chickweed [9, 19] | Plant response rating, Chickweed [9, 20]
50: Plant response rating, Foxtail, Giant [2, 15] | Plant response rating, Crabgrass, Large [3, 15] | Plant response rating, Velvetleaf [6, 16]
0: Plant response rating, Barnyardgrass [1, 14] | Plant response rating, Corn (corn (Zea mays); [14]) | Plant response rating, Morningglory [4, 14] | Plant response rating, Morningglory [4, 15] | Plant response rating, Velvetleaf [6, 14] | Plant response rating, Wheat [7, 12] | Plant response rating, Wheat [7, 14] | Plant response rating, Wheat [7, 16]
15: Plant response rating, Canarygrass [8, 18]
70: Plant response rating, Crabgrass, Large [3, 12] | Plant response rating, Pigweed [5, 14]
85: Plant response rating, Barley [11, 20]
55: Plant response rating, Windgrass [10, 19]
20: Plant response rating, Corn (corn (Zea mays); [12]) | Plant response rating, Corn (corn (Zea mays); [13]) | Plant response rating, Corn (corn (Zea mays); [15]) | Plant response rating, Wheat [7, 13]
90: Plant response rating, Barnyardgrass [1, 12] | Plant response rating, Barnyardgrass [1, 13] | Plant response rating, Foxtail, Giant [2, 13]

Cc1ccc(F)cc1-n1c(-c2cccc(Cl)c2)ncc(C(=O)C2=C(O)CCCC2=O)c1=O [Compound 157]
0: Plant response rating, Barnyardgrass [1, 14] | Plant response rating, Corn (corn (Zea mays); [12]) | Plant response rating, Corn (corn (Zea mays); [14]) | Plant response rating, Corn (corn (Zea mays); [15]) | Plant response rating, Morningglory [4, 14] | Plant response rating, Morningglory [4, 15] | Plant response rating, Pigweed [5, 14] | Plant response rating, Wheat [7, 12] | Plant response rating, Wheat [7, 13] | Plant response rating, Wheat [7, 14] | Plant response rating, Wheat [7, 16]
70: Plant response rating, Crabgrass, Large [3, 15] | Plant response rating, Windgrass [10, 19]
15: Barley plant response rating (0 to 100 scale) ([11]; 13 to 15 days)
30: Plant response rating, Corn (corn (Zea mays); [13]) | Plant response rating, Morningglory [4, 13] | Plant response rating, Barley [11, 19] | Plant response rating, Barley [11, 20]
90: Plant response rating, Barnyardgrass [1, 12] | Plant response rating, Foxtail, Giant [2, 12] | Plant response rating, Pigweed [5, 12] | Plant response rating, Canarygrass [8, 20]
5: Plant response rating, Barley [11, 18]
10: Plant response rating, Foxtail, Giant [2, 14] | Plant response rating, Morningglory [4, 12]
50: Plant response rating, Barnyardgrass [1, 15] | Plant response rating, Foxtail, Giant [2, 15] | Plant response rating, Pigweed [5, 15]
100: Plant response rating, Barnyardgrass [1, 13] | Plant response rating, Foxtail, Giant [2, 13] | Plant response rating, Crabgrass, Large [3, 13] | Plant response rating, Pigweed [5, 13] | Plant response rating, Velvetleaf [6, 12] | Plant response rating, Velvetleaf [6, 13] | Plant response rating, Velvetleaf [6, 16] | Plant response rating, Chickweed [9, 18] | Plant response rating, Chickweed [9, 19] | Plant response rating, Chickweed [9, 20]
20: Plant response rating, Crabgrass, Large [3, 14]
80: Plant response rating, Crabgrass, Large [3, 12] | Plant response rating, Canarygrass [8, 19] | Plant response rating, Windgrass [10, 20]
60: Plant response rating, Velvetleaf [6, 14] | Plant response rating, Windgrass [10, 18]
40: Plant response rating, Canarygrass [8, 18]

Cc1ccccc1-n1c(-c2cc(F)cc(F)c2)ncc(C(=O)C2=C(O)CCCC2=O)c1=O [Compound 159]
80: Plant response rating, Crabgrass, Large [3, 14] | Plant response rating, Canarygrass [8, 18] | Plant response rating, Chickweed ([9]; 8 g ai/ha, 0 to 100 scale)
0: Plant response rating, Corn (corn (Zea mays); [12]) | Plant response rating, Corn (corn (Zea mays); [14]) | Plant response rating, Morningglory [4, 14] | Plant response rating, Wheat [7, 14] | Plant response rating, Barley ([11]; 8 g ai/ha, 0 to 100 scale)
70: Corn plant response rating (corn (Zea mays); [21]) | Plant response rating, Velvetleaf [6, 14]
30: Plant response rating, Barnyardgrass [1, 14]
25: Plant response rating, Canarygrass ([8]; 8 g ai/ha, 0 to 100 scale)
40: Plant response rating, Corn (corn (Zea mays); [16]) | Plant response rating, Canarygrass ([8]; 16 g ai/ha, 0 to 100 scale) | Plant response rating, Windgrass ([10]; 16 g ai/ha, 0 to 100 scale)
100: Barnyardgrass plant response rating [1, 21] | Foxtail, Giant plant response rating [2, 21] | Plant response rating, Crabgrass, Large [3, 16] | Plant response rating, Morningglory [4, 12] | Morningglory plant response rating [4, 21] | Plant response rating, Pigweed [5, 12] | Pigweed plant response rating [5, 21] | Plant response rating, Pigweed [5, 14] | Plant response rating, Pigweed [5, 16] | Plant response rating, Velvetleaf [6, 12] | Velvetleaf plant response rating [6, 21] | Plant response rating, Velvetleaf [6, 16] | Plant response rating, Chickweed ([9]; 16 g ai/ha, 0 to 100 scale) | Plant response rating, Chickweed [9, 18]
10: Plant response rating, Wheat [7, 12] | Plant response rating, Windgrass ([10]; 8 g ai/ha, 0 to 100 scale)
20: Plant response rating, Wheat [7, 16] | Plant response rating, Barley ([11]; 16 g ai/ha, 0 to 100 scale) | Plant response rating, Barley [11, 18]
90: Plant response rating, Barnyardgrass [1, 12] | Plant response rating, Barnyardgrass [1, 16] | Plant response rating, Foxtail, Giant [2, 12] | Plant response rating, Foxtail, Giant [2, 16] | Plant response rating, Crabgrass, Large [3, 12] | Crabgrass, Large plant response rating [3, 21]
60: Plant response rating, Foxtail, Giant [2, 14] | Wheat plant response rating [7, 21]
45: Plant response rating, Windgrass [10, 18]
50: Plant response rating, Morningglory [4, 16] | Barley plant response rating (0 to 100 scale) ([11]; 13 to 15 days)
